ChEMBL document CHEMBL6134800, “Applications of innovative synthetic strategies in anticancer drug discovery: The driving force of new chemical reactions” (Bioorg Med Chem Lett, 2025)
Values after ≈ are worked out from the molar mass of the structure shown.

Columns and labels:
[1] = test system: Jurkat; experiment: Antiproliferative activity against human Jurkat cells assessed as reduction in cell viability incubated for 72 hrs by Celltiter-Glo reagent based assay; assay type: functional
[2] = test system: K562; experiment: Antiproliferative activity against human K562 cells assessed as reduction in cell viability incubated for 72 hrs by Celltiter-Glo reagent based assay; assay type: functional; conditions: K562, 72 h
[3] = test system: Mycobacterium tuberculosis; experiment: Antimycobacterial activity against Mycobacterium tuberculosis H37Rv assessed as bacterial growth inhibition by microplate Alamar blue assay; assay type: functional
[4] = test system: HeLa; experiment: Antiproliferative activity against human HeLa cells; assay type: functional, cell-based
[5] = test system: K562/Adr; experiment: Antiproliferative activity against human K562/Adr cells assessed as reduction in cell growth incubated for 72 hrs by MTT assay; assay type: functional, cell-based
[6] = test system: KBv200; experiment: Cytotoxicity against human KBv200 cells assessed as reduction in cell viability incubated for 72 hrs by SRB assay; assay type: functional, cell-based; conditions: KBv200, 72 h
[7] = test system: MDA-MB-231; experiment: Antiproliferative activity against human MDA-MB-231 cells by CCK8 assay; assay type: functional, cell-based
[8] = test system: L02; experiment: Antiproliferative activity against human L02 cells by CCK8 assay; assay type: functional, cell-based
[9] = test system: QGY-7703; experiment: Antiproliferative activity against human QGY-7703 cells by CCK8 assay; assay type: functional, cell-based
[10] = test system: SMMC-7721; experiment: Antiproliferative activity against human SMMC-7721 cells by CCK8 assay; assay type: functional, cell-based
[11] = test system: MCF7; experiment: Antiproliferative activity against human MCF7 cells assessed as reduction in cell viability incubated for 72 hrs by MTT assay; assay type: functional, cell-based; conditions: MCF7, 72 h
[12] = test system: HeLa; experiment: Antiproliferative activity against human HeLa cells assessed as reduction in cell viability by MTT assay; assay type: functional, cell-based
[13] = target: Indoleamine 2,3-dioxygenase 1 (Homo sapiens, UniProt P14902); experiment: Inhibition of N-terminal His-tagged human IDO1 extracted from Escherichia coli
[14] = test system: U-87 MG; experiment: Antiproliferative activity against human U-87 MG cells assessed as reduction in cell viability by MTT assay; assay type: functional, cell-based, U-87MG ATCC
[15] = test system: MCF7; experiment: Antiproliferative activity against human MCF7 cells assessed as reduction in cell growth; assay type: functional, cell-based
[16] = test system: MDA-MB-231; experiment: Cytotoxicity against human MDA-MB-231 cells assessed as reduction in cell viability incubated for 48 hrs by SRB assay; assay type: functional, cell-based; conditions: MDA-MB-231, 48 h
[17] = test system: HeLa; experiment: Cytotoxicity against human HeLa cells assessed as reduction in cell viability incubated for 48 hrs by SRB assay; assay type: functional, cell-based
[18] = test system: HepG2; experiment: Cytotoxicity against human HepG2 cells assessed as reduction in cell viability incubated for 48 hrs by SRB assay; assay type: functional, cell-based; conditions: HepG2, 48 h
[19] = test system: DU-145; experiment: Cytotoxicity against human DU-145 cells assessed as reduction in cell viability incubated for 48 hrs by SRB assay; assay type: functional, cell-based; conditions: DU-145, 48 h
[20] = test system: MCF7; experiment: Cytotoxicity against human MCF7 cells assessed as reduction in cell viability incubated for 48 hrs by SRB assay; assay type: functional, cell-based; conditions: MCF7, 48 h
[21] = test system: K562/Adr; experiment: Reversal of multidrug resistance in human K562/Adr cells assessed as reversal fold by measuring ratio of adriamycin IC50 to adriamycin IC50 in presence of test compound at 10 uM; assay type: functional
[22] = target: Lysine-specific demethylase 5C (Homo sapiens, UniProt P41229); experiment: Inhibition of KDM5C (unknown origin)
[23] = test system: Candida albicans; experiment: Antifungal activity against Candida albicans MTCC 3020 assessed as reduction in fungal growth; assay type: functional
[24] = test system: CAL-27; experiment: Antiproliferative activity against human CAL-27 cells assessed as reduction in cell viability incubated for 24 hrs by MTT assay; assay type: functional, cell-based; conditions: CAL-27, 24 h
[25] = test system: HeLa; experiment: Antiproliferative activity against human Hela cells by MTT assay; assay type: functional, cell-based
[26] = test system: HCT-116; experiment: Antiproliferative activity against human HCT-116 cells by MTT assay; assay type: functional, cell-based
[27] = test system: HCC1806; experiment: Antiproliferative activity against human HCC1806 cells assessed as inhibition of cell growth at 30 uM relative to control; assay type: functional
[28] = test system: MDA-MB-231; experiment: Cytotoxicity against human MDA-MB-231 cells assessed as reduction in cell viability incubated for 24 hrs by CCK-8 assay; assay type: functional, cell-based; conditions: MDA-MB-231, 24 h
[29] = test system: MDA-MB-231; experiment: Antiproliferative activity against human MDA-MB-231 cells assessed as reduction in cell viability incubated for 72 hrs by Celltiter-Glo reagent based assay; assay type: functional; conditions: MDA-MB-231, 72 h
[30] = test system: HepG2; experiment: Antiproliferative activity against human HepG2 cells assessed as reduction in cell viability incubated for 72 hrs by Celltiter-Glo reagent based assay; assay type: functional; conditions: HepG2, 72 h
[31] = test system: 4T1; experiment: Anticancer activity against mouse 4T1 cells assessed as reduction in cell growth; assay type: functional, cell-based
[32] = test system: HeLa; experiment: Anticancer activity against human HeLa cells assessed as reduction in cell growth; assay type: functional, cell-based
[33] = test system: HeLa; experiment: Antiproliferative activity against human HeLa cells assessed as reduction in cell growth by MTT assay; assay type: functional, cell-based
[34] = test system: A549; experiment: Antiproliferative activity against human A549 cells assessed as reduction in cell growth by MTT assay; assay type: functional, cell-based
[35] = test system: HCT-116; experiment: Antiproliferative activity against human HCT-116 cells assessed as inhibition of cell growth at 20 uM incubated for 48 hrs by MTT assay relative to control; assay type: functional
[36] = test system: A549; experiment: Antiproliferative activity against human A549 cells assessed as inhibition of cell growth at 20 uM incubated for 48 hrs by MTT assay relative to control; assay type: functional
[37] = test system: HepG2; experiment: Cytotoxicity against human HepG2 cells assessed as reduction in cell viability incubated for 24 hrs by CCK-8 assay; assay type: functional, cell-based; conditions: HepG2, 24 h

Indoleamine 2,3-dioxygenase 1, sequence (P14902 whole entry): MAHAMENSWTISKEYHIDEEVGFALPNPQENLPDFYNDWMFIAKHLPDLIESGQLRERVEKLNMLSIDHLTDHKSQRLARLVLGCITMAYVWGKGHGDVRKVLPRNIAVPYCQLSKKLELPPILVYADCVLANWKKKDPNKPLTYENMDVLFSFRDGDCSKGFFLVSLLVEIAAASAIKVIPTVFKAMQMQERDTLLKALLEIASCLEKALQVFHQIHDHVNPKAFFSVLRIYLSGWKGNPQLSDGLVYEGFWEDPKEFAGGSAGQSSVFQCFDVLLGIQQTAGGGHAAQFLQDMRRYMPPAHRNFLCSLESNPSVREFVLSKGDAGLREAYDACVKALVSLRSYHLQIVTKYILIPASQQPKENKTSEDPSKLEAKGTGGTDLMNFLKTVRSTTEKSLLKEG
Lysine-specific demethylase 5C, sequence (P41229 whole entry): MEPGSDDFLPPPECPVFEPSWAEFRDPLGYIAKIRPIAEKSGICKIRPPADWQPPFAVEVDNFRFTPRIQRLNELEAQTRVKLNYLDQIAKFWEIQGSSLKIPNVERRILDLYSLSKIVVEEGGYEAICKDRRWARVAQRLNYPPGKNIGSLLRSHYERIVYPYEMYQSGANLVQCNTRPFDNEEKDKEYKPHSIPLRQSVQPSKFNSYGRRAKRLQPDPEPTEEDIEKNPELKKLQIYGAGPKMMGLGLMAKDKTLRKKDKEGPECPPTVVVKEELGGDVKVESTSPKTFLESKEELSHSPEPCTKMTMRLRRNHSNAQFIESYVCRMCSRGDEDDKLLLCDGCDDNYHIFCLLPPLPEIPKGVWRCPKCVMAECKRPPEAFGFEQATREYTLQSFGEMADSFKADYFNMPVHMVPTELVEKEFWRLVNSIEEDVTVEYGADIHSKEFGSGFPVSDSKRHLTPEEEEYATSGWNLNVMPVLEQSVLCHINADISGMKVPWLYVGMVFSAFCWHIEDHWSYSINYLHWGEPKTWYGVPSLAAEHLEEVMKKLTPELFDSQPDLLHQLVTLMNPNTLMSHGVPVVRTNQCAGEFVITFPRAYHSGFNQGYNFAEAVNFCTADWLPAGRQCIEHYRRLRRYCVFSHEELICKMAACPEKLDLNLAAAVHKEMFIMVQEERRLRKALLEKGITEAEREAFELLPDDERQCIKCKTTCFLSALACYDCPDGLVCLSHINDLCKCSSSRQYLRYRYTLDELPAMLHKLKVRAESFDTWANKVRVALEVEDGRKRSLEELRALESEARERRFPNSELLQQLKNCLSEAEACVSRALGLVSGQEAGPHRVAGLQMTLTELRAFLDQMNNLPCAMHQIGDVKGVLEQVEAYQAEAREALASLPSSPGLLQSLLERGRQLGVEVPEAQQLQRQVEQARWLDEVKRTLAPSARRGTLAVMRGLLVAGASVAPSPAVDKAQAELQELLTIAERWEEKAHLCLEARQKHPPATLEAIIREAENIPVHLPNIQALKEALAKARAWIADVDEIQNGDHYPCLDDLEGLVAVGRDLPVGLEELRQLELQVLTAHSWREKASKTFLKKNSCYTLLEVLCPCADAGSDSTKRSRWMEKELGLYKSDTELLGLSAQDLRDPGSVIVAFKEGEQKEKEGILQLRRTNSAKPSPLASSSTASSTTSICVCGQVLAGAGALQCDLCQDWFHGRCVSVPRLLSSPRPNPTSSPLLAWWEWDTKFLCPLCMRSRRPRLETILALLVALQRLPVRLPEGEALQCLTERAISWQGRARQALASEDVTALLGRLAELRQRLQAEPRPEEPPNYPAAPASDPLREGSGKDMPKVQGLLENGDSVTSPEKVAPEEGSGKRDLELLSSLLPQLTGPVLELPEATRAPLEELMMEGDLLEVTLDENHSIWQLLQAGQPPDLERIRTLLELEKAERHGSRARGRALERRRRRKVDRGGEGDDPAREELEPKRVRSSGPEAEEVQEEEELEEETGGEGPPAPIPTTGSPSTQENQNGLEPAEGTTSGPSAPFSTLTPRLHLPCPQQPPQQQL

O=C1C=CC2(O)c3c(nc4c(c3-c3ccccc3)c3ccccc3n4Cc3ccccc3)OC2C1 (centres undefined)
IC50 [1]: 0.9 µM | IC50 [2]: 2.1 µM

CCOC(=O)C1=C(Nc2ccc(Cl)cc2)C[C@H](c2ccc(OC)cc2)N(c2ccc(Cl)cc2)[C@H]1c1ccc(OC)cc1
MIC [3]: 12.5 µg/mL

Cc1cccc2c1C(=O)N1CCN(c3ccccc3)C1(C(F)(F)F)C2 (centres undefined)
IC50 [4]: 1.43 µM

CCC1=C[C@@H]2CN(C1)Cc1c([nH]c3ccccc13)[C@@](C(=O)OC)(c1cc3c(cc1OC)N(C)[C@H]1[C@@](O)(C(=O)OC)[C@H](OC(C)=O)[C@]4(CC)C=CCN5CC[C@]31[C@@H]54)C2 [VINORELBINE]
IC50 [5]: 0.558 µM | IC50 [6]: 0.434 µM

COC(=O)[C@]1(C)CC[C@]2(C)CC[C@]3(C)C4=CC=C5C(=CC(=O)C(O)=C5C)[C@]4(C)CC[C@@]3(C)[C@@H]2C1 [PRISTIMERIN]
IC50 [7]: 1.01 µM | IC50 [8]: 3.6 µM | IC50 [9]: 2.34 µM | IC50 [10]: 1.97 µM

C[Si](C)(C)c1ccc(C(c2c[nH]c3ccccc23)c2c[nH]c3ccccc23)cc1
IC50 [11]: 6.71 µM

COC(=O)[C@]1(C)CC[C@]2(C)CC[C@]3(C)C4=CC=C5C(=CC(=O)C(OC(=O)CCCc6cn(CCCO[C@@H]7O[C@H](CO)[C@@H](O)[C@H](O)[C@H]7O)nn6)=C5C)[C@]4(C)CC[C@@]3(C)[C@@H]2C1
IC50 [8]: 4.61 µM | IC50 [9]: 5.56 µM | IC50 [10]: 2.78 µM

COC(=O)[C@H](CC(C)C)NC(=O)[C@H](Cc1ccccc1C1=CC(=O)C=CC1=O)NC(=O)[C@@H](NC(=O)OC(C)(C)C)C(C)(C)C
IC50 [12]: 40 µM

O=C1c2ccccc2-n2c1c(-c1ccc(Cl)cc1Br)c(S(=O)(=O)c1ccccc1)c2-c1ccccc1
IC50 [13]: 0.0823 µM

COC(=O)[C@@H](NC(=O)[C@H](CC(C)C)NC(=O)[C@H](Cc1ccccc1C1=CC(=O)C=CC1=O)NC(=O)[C@@H](NC(=O)OC(C)(C)C)C(C)(C)C)C(C)C
IC50 [14]: 32 µM

CCOC(=O)C1=C(Nc2ccc(OC)cc2)C[C@H](c2ccc(Cl)cc2)N(c2ccc(OC)cc2)[C@H]1c1ccc(Cl)cc1
IC50 [15]: 34.2 µg/mL (≈ 56.6 µM)

CCOC(=O)c1sc(-c2ccc(OCC(C)C)c(C(Nc3ccc([N+](=O)[O-])cc3)P(=O)(OCC)OCC)c2)nc1C (centres undefined)
IC50 [16]: 6.3 µg/mL (≈ 10.4 µM) | IC50 [17]: 9.6 µg/mL (≈ 15.9 µM) | IC50 [18]: 20.9 µg/mL (≈ 34.5 µM) | IC50 [19]: 2.13 µg/mL (≈ 3.52 µM) | IC50 [20]: 12.3 µg/mL (≈ 20.3 µM)

CCOc1cc(CC(=O)N[C@@H](CC(C)C)c2ccccc2N2CCCCC2)cc2c1C(=O)N[C@@H](C)C(=O)N[C@@H](C(C)C)C(=O)OC/C(c1ccccc1)=C\C2
fold change (FC) [21]: 176.3

CCOC(=O)c1sc(-c2ccc(OCC(C)C)c(C(Nc3ccc(OC)cc3)P(=O)(OCC)OCC)c2)nc1C (centres undefined)
IC50 [16]: 8.18 µg/mL (≈ 13.8 µM) | IC50 [17]: 10.7 µg/mL (≈ 18.1 µM) | IC50 [18]: 22 µg/mL (≈ 37.3 µM) | IC50 [19]: 3.02 µg/mL (≈ 5.11 µM) | IC50 [20]: 12.5 µg/mL (≈ 21.2 µM)

CCCCCCN(C)CCn1cc(-c2cccc(C(=O)O)c2)nn1
IC50 [22]: 3.01 µM

CC12CCCCN1c1ccc(Br)cc1C(=O)O2 (centres undefined)
MIC [23]: 12.5 µg/mL (≈ 42.2 µM)

Cc1ccccc1C(c1c[nH]c2ccccc12)c1c[nH]c2ccccc12
IC50 [11]: 5.69 µM

O=c1[nH]c(/C=C2/C(c3ccccc3)=C(c3ccccc3)c3cc(C(F)(F)F)ccc32)nc2ccccc12
IC50 [24]: 9.41 µM

CCOc1cccc(-c2ccc3c(c2)c2ccccc2n3C)c1C(=O)Nc1cccc2cccnc12
IC50 [25]: 9.6 µM | IC50 [26]: 15.2 µM

COC(=O)[C@@H]1Cc2c[nH]c3c(cccc23)/C=C/C(=O)OCCCC(=O)N[C@@H](CC(C)C)C(=O)N2CCC[C@H]2C(=O)N[C@@H](Cc2ccccc2)C(=O)N1
inhibition at 30 µM [27]: 97%

COc1ccc2c(c1)CC(Nc1ccccc1)(C(F)(F)F)n1c-2nc2ccccc21 (centres undefined)
IC50 [28]: 1.3 µM

CC(=O)O[C@@]12CO[C@@H]1C[C@H](O)[C@@]1(C)C(=O)[C@H](O)C3=C(C)[C@@H](OC(=O)[C@H](O)[C@@H](NC(=O)OC(C)(C)C)c4ccccc4)C[C@@](O)([C@@H](OC(=O)c4ccccc4)[C@H]21)C3(C)C [DOCETAXEL ANHYDROUS]
IC50 [5]: 1.03 µM | IC50 [6]: 0.104 µM

COc1ccc(-c2c(C3(O)C=CC(=O)C=C3)[nH]c(=O)c3c2c2ccccc2n3Cc2ccccc2)cc1
IC50 [29]: 0.66 µM | IC50 [30]: 1.39 µM

Cc1ccc2c(c1)C(=O)OC1(C)CCCCN21 (centres undefined)
IC50 [31]: 10.1 µg/mL (≈ 43.8 µM) | IC50 [32]: 25.1 µg/mL (≈ 109 µM)

O=C(Nc1cccc2cccnc12)c1ccccc1-c1ccc2c(c1)c1ccccc1n2-c1ccccc1
IC50 [25]: 37.1 µM

Cc1c2n(c3ccc(F)cc13)C(O)(C(F)(F)F)C=C2c1ccccc1 (centres undefined)
IC50 [33]: 2.69 µM | IC50 [34]: 6.34 µM

COc1ccc(-c2c(-c3cc(OC)c(OC)c(OC)c3)cc(-c3cc(OC)c(OC)c(OC)c3)oc2=O)cc1OC
inhibition at 20 µM [35]: 89.4% | inhibition at 20 µM [36]: 82.9%

CCOC(=O)c1sc(-c2ccc(OCC(C)C)c(C(Nc3ccc(C(F)(F)F)cc3I)P(=O)(OCC)OCC)c2)nc1C (centres undefined)
IC50 [16]: 8.54 µg/mL (≈ 11.3 µM) | IC50 [17]: 12.3 µg/mL (≈ 16.3 µM) | IC50 [18]: 26.1 µg/mL (≈ 34.6 µM) | IC50 [19]: 3.34 µg/mL (≈ 4.43 µM) | IC50 [20]: 14.1 µg/mL (≈ 18.7 µM)

CC[C@H](C)[C@@H]1NC(=O)[C@H](Cc2ccccc2)NC(=O)CC[C@@H](C(=O)OC)NC(=O)COC(=O)/C=C/c2cccc3c(c[nH]c23)C[C@@H](C(=O)OCc2ccccc2)NC1=O
inhibition at 30 µM [27]: 99%

FC(F)(F)C1(Nc2ccccc2)Cc2ccsc2-c2nc3ccccc3n21 (centres undefined)
IC50 [37]: 9.6 µM

Cc1c2n(c3ccccc13)C(O)(C(F)(F)F)C=C2c1ccccc1 (centres undefined)
IC50 [33]: 31.6 µM | IC50 [34]: 1.26 µM

Cc1ccccc1NC1(C(F)(F)F)Cc2ccccc2C(=O)N1CCO (centres undefined)
IC50 [4]: 1.13 µM

O=C1NC(/C=C2/C(c3ccccc3)=C(c3ccccc3)c3ccccc32)=NC2c3ccccc3OC12 (centres undefined)
IC50 [24]: 8.79 µM
